# Source: patent publication US5140009A (Tap Pharmaceuticals, Inc., priority 1990, dated 1992)
# Square brackets hold non-standard residues; d marks the D form. Peptide text beside a SMILES is read from it. * marks the point of attachment. Propanoyl(3-(4-F-phenyl)) = O=C(CCc1ccc(F)cc1)*; Propanoyl(3-(4-Cl-Ph)) = O=C(CCc1ccc(Cl)cc1)*; d1Nal = N[C@H](Cc1cccc2ccccc12)C(=O)O; d2Nal = N[C@H](Cc1ccc2ccccc2c1)C(=O)O; dLys(iPr) = CC(C)NCCCC[C@@H](N)C(=O)O; Lys(iPr) = CC(C)NCCCC[C@H](N)C(=O)O; NMeY = CN[C@@H](Cc1ccc(O)cc1)C(=O)O; dBta = N[C@H](Cc1csc2ccccc12)C(=O)O; NMeF = CN[C@@H](Cc1ccccc1)C(=O)O; d3Pal = N[C@H](Cc1cccnc1)C(=O)O; Cha = N[C@@H](CC1CCCCC1)C(=O)O; NMeL = CN[C@@H](CC(C)C)C(=O)O; Nicotinoyl = O=C(c1cccnc1)*; dOrn = NCCC[C@@H](N)C(=O)O; Bn = c1ccc(C*)cc1
# Biological target: T1, LHRH receptors (Rattus norvegicus, UniProt P30969)
# T1 construct: Pituitary membranes containing LHRH receptors are prepared in batches from quick-frozen rat pituitaries; tissue Hilltop Labs; host or cells: rat pituitary membranes
# T1 sequence (P30969 1-327): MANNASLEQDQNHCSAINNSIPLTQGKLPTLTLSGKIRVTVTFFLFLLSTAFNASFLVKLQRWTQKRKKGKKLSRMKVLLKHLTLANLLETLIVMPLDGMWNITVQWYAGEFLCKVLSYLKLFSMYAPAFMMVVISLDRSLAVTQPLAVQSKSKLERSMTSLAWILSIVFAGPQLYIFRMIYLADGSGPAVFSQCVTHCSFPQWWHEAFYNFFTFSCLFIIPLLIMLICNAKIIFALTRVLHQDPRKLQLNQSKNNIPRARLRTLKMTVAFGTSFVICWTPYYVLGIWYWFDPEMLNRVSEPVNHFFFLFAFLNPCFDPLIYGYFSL
# Assay: Receptor Binding (radioligand receptor binding assay)
# Details: table 4; rat pituitary membranes, radioligand 50 pM, 2 hours at 4° C.; read-out: Receptor Binding pkI (converted)
row,Ki [nM],Compound
1,0.00631,"CC(C)C[C@H](NC(=O)[C@@H](Cc1cccnc1)NC(=O)[C@H](Cc1ccc(O)cc1)N(C)C(=O)[C@H](CO)NC(=O)[C@@H](Cc1cccc2ccccc12)NC(=O)CCc1ccc(F)cc1)C(=O)N[C@@H](CCCNC(=N)N)C(=O)N1CCC[C@H]1C(=O)N[C@H](C)C(N)=O [Compound 184, (3-10)[N-(3-(4-Fluorophenyl)propionyl)-D-1-Nal^3 -NMeTyr^5 -D-3-Pal^6 -D-Ala^10]LHRH] ({Propanoyl(3-(4-F-phenyl))}-[d1Nal]S[NMeY][d3Pal]LRP[dA]-NH2)"
2,0.0155,"C[C@@H](NC(=O)[C@@H]1CCCN1C(=O)[C@H](CCCNC(=N)N)NC(=O)[C@H](CC1CCCCC1)NC(=O)[C@@H](CCCCN)NC(=O)[C@H](Cc1ccc(O)cc1)N(C)C(=O)[C@H](CO)NC(=O)[C@@H](Cc1cccc2ccccc12)NC(=O)CCc1ccc(F)cc1)C(N)=O [Compound 185, (3-10)[N-(3-(4-Fluorophenyl)propionyl)-D-1-Nal^3 -NMeTyr^5 -D-Lys^6 -Cha^7 -D-Ala^10]LHRH] ({Propanoyl(3-(4-F-phenyl))}-[d1Nal]S[NMeY][dK][Cha]RP[dA]-NH2)"
3,0.0339,"CC(C)C[C@H](NC(=O)[C@@H](CCCCN)NC(=O)[C@H](Cc1ccc(O)cc1)N(C)C(=O)[C@H](CO)NC(=O)[C@@H](Cc1ccc2ccccc2c1)NC(=O)CCc1ccc(F)cc1)C(=O)N[C@@H](CCCNC(=N)N)C(=O)N1CCC[C@H]1C(=O)N[C@H](C)C(N)=O [Compound 186, (3-10)[N-(3-(4-Fluorophenyl)propionyl)-D-2-Nal^3 -NMeTyr^5 -D-Lys^6 -D-Ala^10]LHRH] ({Propanoyl(3-(4-F-phenyl))}-[d2Nal]S[NMeY][dK]LRP[dA]-NH2)"
4,0.0224,"CC(C)C[C@H](NC(=O)[C@@H](CCCCNC(=O)c1cccnc1)NC(=O)[C@H](Cc1ccc(O)cc1)N(C)C(=O)[C@H](CO)NC(=O)[C@@H](Cc1ccc2ccccc2c1)NC(=O)CCc1ccc(F)cc1)C(=O)N[C@@H](CCCNC(=N)N)C(=O)N1CCC[C@H]1C(=O)N[C@H](C)C(N)=O [Compound 187, (3-10)[N-(3-(4-Fluorophenyl)propionyl)-D-2-Nal^3 -NMeTyr^5 -D-Lys^6 (N-epsilon-nicotinyl)-D-Ala^10]LHRH] ({Propanoyl(3-(4-F-phenyl))}-[d2Nal]S[NMeY][dK](Nicotinoyl)LRP[dA]-NH2)"
5,0.00331,"COc1ccc(C[C@H](NC(=O)[C@H](CO)NC(=O)[C@@H](Cc2cccc3ccccc23)NC(=O)CCc2ccc(F)cc2)C(=O)N[C@H](CCCCN)C(=O)N[C@@H](CC(C)C)C(=O)N[C@@H](CCCNC(=N)N)C(=O)N2CCC[C@H]2C(=O)N[C@H](C)C(N)=O)cc1 [Compound 188, (3-10)[N-(3-(4-Fluorophenyl)propionyl)-D-1-Nal^3 -Tyr^5 (OMe)-D-Lys^6 -D-Ala^10]LHRH] ({Propanoyl(3-(4-F-phenyl))}-[d1Nal]SY(Me)[dK]LRP[dA]-NH2)"
6,0.0055,"CC(C)C[C@H](NC(=O)[C@@H](CCCCN)NC(=O)[C@H](Cc1ccccc1)N(C)C(=O)[C@H](CO)NC(=O)[C@@H](Cc1cccc2ccccc12)NC(=O)CCc1ccc(F)cc1)C(=O)N[C@@H](CCCNC(=N)N)C(=O)N1CCC[C@H]1C(=O)N[C@H](C)C(N)=O [Compound 189, (3-10)[N-(3-(4-Fluorophenyl)propionyl)-D-1-Nal^3 -NMePhe^5 -D-Lys^6 -D-Ala^10]LHRH] ({Propanoyl(3-(4-F-phenyl))}-[d1Nal]S[NMeF][dK]LRP[dA]-NH2)"
7,0.0158,"CC(C)C[C@@H](C(=O)N[C@@H](CCCNC(=N)N)C(=O)N1CCC[C@H]1C(=O)N[C@H](C)C(N)=O)N(C)C(=O)[C@@H](CCCCN)NC(=O)[C@H](Cc1ccc(O)cc1)N(C)C(=O)[C@H](CO)NC(=O)[C@@H](Cc1cccc2ccccc12)NC(=O)CCc1ccc(F)cc1 [Compound 190, (3-10)[N-(3-(4-Fluorophenyl)propionyl)-D-1-Nal^3 -NMeTyr^5 -D-Lys^6 -NMeLeu^7 -D-Ala^10]LHRH] ({Propanoyl(3-(4-F-phenyl))}-[d1Nal]S[NMeY][dK][NMeL]RP[dA]-NH2)"
8,0.00955,CC(C)C[C@H](NC(=O)[C@@H](CCCCNC(=O)c1cccnc1)NC(=O)[C@H](CCCCNC(=O)c1cccnc1)NC(=O)[C@H](CO)NC(=O)[C@@H](Cc1cccc2ccccc12)NC(=O)CCc1ccc(F)cc1)C(=O)N[C@@H](CCCNC(=N)N)C(=O)N1CCC[C@H]1C(=O)N[C@H](C)C(N)=O [Compound 191] ({Propanoyl(3-(4-F-phenyl))}-[d1Nal]SK(Nicotinoyl)[dK](Nicotinoyl)LRP[dA]-NH2)
9,0.00676,"CC(C)C[C@H](NC(=O)[C@@H](CCCN)NC(=O)[C@H](Cc1ccc(O)cc1)N(C)C(=O)[C@H](CO)NC(=O)[C@@H](Cc1cccc2ccccc12)NC(=O)CCc1ccc(F)cc1)C(=O)N[C@@H](CCCNC(=N)N)C(=O)N1CCC[C@H]1C(=O)N[C@H](C)C(N)=O [Compound 192, (3-10)[N-(3-(4-Fluorophenyl)propionyl)-D-1-Nal^3 -NMeTyr^5 -D-Orn^6 -D-Ala^10]LHRH] ({Propanoyl(3-(4-F-phenyl))}-[d1Nal]S[NMeY][dOrn]LRP[dA]-NH2)"
10,0.191,"CC(C)C[C@H](NC(=O)[C@@H](CCCCNC(=O)c1cccnc1)NC(=O)[C@H](Cc1ccc(O)cc1)N(C)C(=O)[C@H](CO)NC(=O)[C@@H](Cc1cccnc1)NC(=O)CCc1ccc(Cl)cc1)C(=O)N[C@@H](CCCCNC(C)C)C(=O)N1CCC[C@H]1C(=O)N[C@H](C)C(N)=O [Compound 194, (3-10)[N-(3-(4-Chlorophenyl)propionyl)-D-3-Pal^3 -NMeTyr^5 -D-Lys^6 (N-epsilon-nicotinyl)-Lys^8 (N-epsilon-isopropyl)-D-Ala^10]LHRH] ({Propanoyl(3-(4-Cl-Ph))}-[d3Pal]S[NMeY][dK](Nicotinoyl)L[Lys(iPr)]P[dA]-NH2)"
11,0.0234,"CC(C)C[C@H](NC(=O)[C@@H](Cc1ccc(O)cc1)NC(=O)[C@H](Cc1ccc(O)cc1)N(C)C(=O)[C@H](CO)NC(=O)[C@@H](Cc1c[nH]c2ccccc12)NC(=O)CCc1ccc(F)cc1)C(=O)N[C@@H](CCCCNC(C)C)C(=O)N1CCC[C@H]1C(=O)N[C@H](C)C(N)=O [Compound 196, (3-10)[N-(3-(4-Fluorophenyl)propionyl)-D-Trp^3 -NMeTyr^5 -D-Tyr^6 -Lys^8 (N-epsilon-isopropyl)-D-Ala^10]LHRH] ({Propanoyl(3-(4-F-phenyl))}-[dW]S[NMeY][dY]L[Lys(iPr)]P[dA]-NH2)"
12,0.00933,"CC(C)C[C@H](NC(=O)[C@@H](CCCCNC(C)C)NC(=O)[C@H](Cc1ccc(O)cc1)N(C)C(=O)[C@H](CO)NC(=O)[C@@H](Cc1csc2ccccc12)NC(=O)CCc1ccc(F)cc1)C(=O)N[C@@H](CCCNC(=N)N)C(=O)N1CCC[C@H]1C(=O)N[C@H](C)C(N)=O [Compound 198, (3-10)[N-(3-(4-Fluorophenyl)propionyl)-D-3-Bal^3 -NMeTyr^5 -D-Lys^6 (N-epsilon-isopropyl)-D-Ala^10]LHRH] ({Propanoyl(3-(4-F-phenyl))}-[dBta]S[NMeY][dLys(iPr)]LRP[dA]-NH2)"
13,0.00832,"CC(C)C[C@H](NC(=O)[C@@H](CCCCN)NC(=O)[C@H](Cc1ccc(O)cc1)N(C)C(=O)[C@H](CO)NC(=O)[C@@H](Cc1cccc2ccccc12)NC(=O)CCc1ccc(F)cc1)C(=O)N[C@@H](CCCCNC(C)C)C(=O)N1CCC[C@H]1C(=O)N[C@H](C)C(N)=O [Compound 199, (3-10)[N-(3-(4-Fluorophenyl)propionyl)-D-1-Nal^3 -NMeTyr^5 -D-Lys^6 -Lys^8 (N-epsilon-isopropyl)-D-Ala^10]LHRH] ({Propanoyl(3-(4-F-phenyl))}-[d1Nal]S[NMeY][dK]L[Lys(iPr)]P[dA]-NH2)"
14,0.00437,"COc1ccc(C[C@H](NC(=O)[C@H](CO)NC(=O)[C@@H](Cc2cccc3ccccc23)NC(=O)CCc2ccc(F)cc2)C(=O)N[C@H](CCCCNC(=O)c2cccnc2)C(=O)N[C@@H](CC(C)C)C(=O)N[C@@H](CCCCNC(C)C)C(=O)N2CCC[C@H]2C(=O)N[C@H](C)C(N)=O)cc1 [Compound 200, (3-10)[N-(3-(4-Fluorophenyl)propionyl)-D-1-Nal^3 -Tyr^5 (OMe)-D-Lys^6 (N-epsilon-nicotinyl)-Lys^8 (N-epsilon-isopropyl)-D-Ala^10]LHRH] ({Propanoyl(3-(4-F-phenyl))}-[d1Nal]SY(Me)[dK](Nicotinoyl)L[Lys(iPr)]P[dA]-NH2)"
15,0.0204,"CC(C)C[C@H](NC(=O)[C@@H](Cc1cccnc1)NC(=O)[C@H](Cc1ccc(O)cc1)NC(=O)[C@H](CO)NC(=O)[C@@H](Cc1cccc2ccccc12)NC(=O)CCc1ccc(F)cc1)C(=O)N[C@@H](CCCCNC(C)C)C(=O)N1CCC[C@H]1C(=O)N[C@H](C)C(N)=O [Compound 201, (3-10)[N-(3-(4-Fluorophenyl)propionyl)-D-1-Nal^3 -D-3Pal^6 -Lys^8 (N-epsilon-isopropyl)-D-Ala^10]LHRH] ({Propanoyl(3-(4-F-phenyl))}-[d1Nal]SY[d3Pal]L[Lys(iPr)]P[dA]-NH2)"
16,0.138,"CC(C)C[C@H](NC(=O)[C@@H](Cc1cccnc1)NC(=O)[C@H](Cc1ccc(O)cc1)NC(=O)[C@H](COCc1ccccc1)NC(=O)[C@@H](Cc1cccc2ccccc12)NC(=O)CCc1ccc(F)cc1)C(=O)N[C@@H](CCCCNC(C)C)C(=O)N1CCC[C@H]1C(=O)N[C@H](C)C(N)=O [Compound 202, (3-10)[N-(3-(4-Fluorophenyl)propionyl)-D-1-Nal^3 -Ser^4 (O-Bzl)-D-3-Pal^6 -Lys^8 (N-epsilon-isopropyl)-D-Ala^10]LHRH] ({Propanoyl(3-(4-F-phenyl))}-[d1Nal]S(Bn)Y[d3Pal]L[Lys(iPr)]P[dA]-NH2)"
